Measurements from US11851459B2, “Methods and uses of modulators of anaphase promoting complex (APC) activity for treating cancer” (University of Saskatchewan, priority 2018, dated 2023).
Entries after “also recorded” stand apart in the source; their conditions may differ.

How the values were obtained:
MDA-MB-231 cells [1] = assay: Scratch assay, migration of MDA-MB-231 cells; type: cell-based, human
Experimental: A. An equal number of MDA-MB-231 TNBC cells were grown to confluence in 6 well plates. The cells were then treated with increasing doses of metformin (0, 1, 5 and 10 mM) and a scratch was made in the cell lawn creating a void. At the times shown the number of cell that migrated into the void were counted. The experiment was repeated twice. B. WT MDA-MB-231 cells and cells stably expressing the C43-4 plasmid were grown as in A. Control cells were left untreated, with other cells treated with the DMSO control, 1 uM DOX or 2.5 uM M2I-1. A void was created in the cell lawn and the number of cells that entered the void were scored as above. This experiment was repeated 4 times. This experiment was also repeated 4 times in an independently generated stable C43-4 cell line with similar results. The error of the mean is shown. C. WT and MDA-MB-231 cells stably expressing the C2-4B peptide plasmid were used for the scratch assay as described above. D. WT and MDA-MB-231 cells stably expressing the C13-3 peptide plasmid were used for the scratch assay as described above. The experiments in C and D were only performed once.
Assays using WT and C43-4 expressing cells have been done 4 times. Assays using C13-3 and C2-4B cells have only been conducted once. Metformin treated cells have been used twice. For scratch assays, a scratch is made down a confluent plate of cells, leaving a void. The number of cells that migrate back into the void over time is determined.

Apc5 = target: T1, Apc5 (Saccharomyces cerevisiae, UniProt Q08683); assay: Yeast 2-hybrid (Y2H) assay, Apc5 bait; type: binding
T1 construct: expressed in transfected cells; host or cells: yeast Y2H cells
T1 sequence (Q08683 1-685): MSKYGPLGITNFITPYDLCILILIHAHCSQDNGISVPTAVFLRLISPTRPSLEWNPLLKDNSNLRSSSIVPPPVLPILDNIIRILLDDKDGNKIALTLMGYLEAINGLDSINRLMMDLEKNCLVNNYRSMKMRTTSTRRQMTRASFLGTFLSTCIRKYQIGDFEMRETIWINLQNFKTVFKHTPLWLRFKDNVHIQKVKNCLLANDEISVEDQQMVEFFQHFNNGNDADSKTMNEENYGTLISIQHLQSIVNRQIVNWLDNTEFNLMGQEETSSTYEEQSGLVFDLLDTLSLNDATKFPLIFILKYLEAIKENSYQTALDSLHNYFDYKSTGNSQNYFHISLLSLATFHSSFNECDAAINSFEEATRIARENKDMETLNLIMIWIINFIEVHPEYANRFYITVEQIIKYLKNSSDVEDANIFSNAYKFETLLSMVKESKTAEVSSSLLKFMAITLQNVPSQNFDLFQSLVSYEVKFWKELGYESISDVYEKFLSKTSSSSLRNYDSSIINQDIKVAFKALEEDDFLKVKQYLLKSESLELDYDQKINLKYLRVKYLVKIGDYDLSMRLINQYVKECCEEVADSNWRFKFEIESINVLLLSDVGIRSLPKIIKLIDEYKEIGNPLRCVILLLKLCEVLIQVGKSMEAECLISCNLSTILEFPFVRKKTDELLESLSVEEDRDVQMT
Experimental: (§1) The reverse genetic screen utilized a yeast 2-hybrid (Y2H) protocol that selected for peptides that bound to the APC subunits Apc5 or Apc10 (see FIG. 8 for APC structure), to assess whether peptide-binding might modify APC function. Peptides that bound APC subunits were then assayed for those that suppressed APC mutant defects.
(§2) To identify peptides that bound to either Apc5 or Apc10 proteins using a yeast 2-hybrid (Y2H) screen, random small peptides were cloned into the TrxA scaffold (library provided by R. Geyer; FIG. 9) and expressed from a galactose-inducible Y2H prey vector in cells harboring either the APC5 or APC10 genes cloned into the Y2H bait vectors (APC5/APC10 bait constructs complement APC mutant defects).
(§3) Over 100 peptides that bound either Apc5 or Apc10 were recovered from millions screened. Six peptides that reproducibly interacted with the Apc5 or Apc10 bait construct in Y2H assays were examined further. Vectors expressing these 6 peptides were transformed into WT or APC mutant cells and assessed for ts growth.

[2] = tested on: apc5 temperature sensitive mutant and/or apc10Δ mutant; assay: Viability of APC mutant yeast (spot dilution); type: cell-based
Description: Suitable APC activators also include APC activators that increase the cell viability of an wild-type and/or an APC mutant cell by at least 10%, at least 20%, at least 30%, at least 40%, at least 50%, at least 60%, at least 70% or at least 80% compared to a cell with wild-type APC function. […] Examples of yeast cells with defective APC function include apc5 and apc10 mutants. An example of an apc5 mutant is the apc5 temperature sensitive mutant described herein. An example of an apc10 mutant is the apc10 deletion mutant described herein. Viability of a yeast mutant can be measured for example, by the spot dilution assays described herein or any other method known in the art.
as §1, §3

[3] = tested on: APC (substrates Cyclin B, Securin, Cdc20, HURP); assay: APC substrate westerns in MDA-MB-231 cells expressing peptides; type: cell-based, human; conditions: for levels of the APC substrate HURP: MDA-MB-231 stably transfected, normalized to tubulin; for levels of the APC substrate CDC20: MDA-MB-231 stably expressing peptides
Experimental: (§4) A. Transient transfection of the C43-4 peptide plasmid into human triple negative MDA-MB-231 breast cancer cells followed by Western blot analysis of lysates against Cyclin B, Securin and Cdc20 showing enhanced protein loss. B. Cells in A were treated with DOX (1 uM) for 48 hrs with cell viability measured using an MTT assay kit. The experiment was done in triplicate with standard error of the means shown.
(§5) A. Stable integration of C43-4 in MDA-MB-231 cells was established by selection of transfected cells on Geneticin for 7 days. Westerns against APC substrates show APC activation. B. Cells in A were treated with DOX (1 uM) for 48 hrs with cell viability measured using an MTT assay kit. Mean and SEM of 3 biological repeats.
(§6) A. TNBC MDA-MB-231 cells stably expressing APC binding peptides activate the APC. Cells were grown to confluence and then used to prepare protein lysates. The lysates were used to measure levels of the APC substrate CDC20, which will be reduced if the APC is activated. Cells stably expressing the pcDNA empty vector were used as a control. B. In a similar experiment, MDA-MB-231 cells stably expressing the APC binding peptides shown, or the empty vector control, were used to measure protein levels of the APC substrate HURP using Westerns. C. Triplicate blots as in B were scanned, normalized to tubulin and plotted. Error of the mean is shown. Significant changes are indicated. D. MDA-MB-231 cells stably expressing the empty pcDNA vector, or the C43-4 and C13-3 APC binding peptides, were treated with 1 μM Doxorubicin for 24 hrs. Cell viability was measured using an MTT viability assay.
The C43-4 peptide sequence was cloned into the human expression vector pcDNA. This construct was transiently, and stably, expressed in human breast cancer cell line MDA-MB-231. […] In 231 cells, which are triple negative, aggressive and somewhat resistant to Doxorubicin, the transiently and stably transfected C43-4 peptide resensitized them to DOX treatment (FIGS. 22B and 23B).
(§7) In FIG. 26B, MDA-MB-231 cells were also stably transfected with the peptides C1-8, C2-4B, C3-1B, and C9-5. Levels of the APC substrate HURP were measured in lysates prepared from these cells. […] The empty vector pcDNA was also stably expressed in 231 cells and used as a control.

MDA-MB-231 cells [4] = assay: DOX sensitivity, MTT viability assay, MDA-MB-231 cells expressing peptides; type: cell-based, human; conditions: stably transfected, 1 uM Doxorubicin 24 hours
Experimental: as §4, §5, §6, §7

Apc10 = target: T2, Apc10 (Saccharomyces cerevisiae, UniProt P53068); assay: Yeast 2-hybrid (Y2H) assay, Apc10 bait; type: binding
T2 construct: expressed in transfected cells; host or cells: yeast Y2H cells
T2 sequence (P53068 1-250): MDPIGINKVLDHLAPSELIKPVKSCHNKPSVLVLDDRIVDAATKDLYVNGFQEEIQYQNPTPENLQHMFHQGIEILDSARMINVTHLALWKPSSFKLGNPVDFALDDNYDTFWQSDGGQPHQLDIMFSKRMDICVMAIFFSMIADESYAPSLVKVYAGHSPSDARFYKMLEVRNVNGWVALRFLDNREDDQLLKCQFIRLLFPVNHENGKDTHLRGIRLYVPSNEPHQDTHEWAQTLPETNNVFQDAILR
Experimental: as §1
A library of random small peptides were cloned into a Thioredoxin (Trx) scaffold (see FIG. 9 for Trx-peptide structure) and expressed from a galactose-inducible Y2H prey vector in cells expressing the Apc10 bait vector (the modified Apc10 is still part of the complete APC complex). Six peptides that reproducibly interacted with the Apc10 bait construct in Y2H assays were identified (FIG. 1A) and were examined further. Cells will only grow in this assay if the peptide interacts with Apc5 or Apc10.
as §2, §3

APC = assay: Yeast 2-hybrid assay for binding the APC
Experimental: as §1, §2

[5] = tested on: apc5^CA temperature sensitive mutant; assay: Forward genetic screen, rescue of apc5^CA ts growth; type: cell-based, yeast; conditions: restrictive temperature
Description: Using a forward genetic screen to test whether temperature sensitive (ts) APC mutants expressing random small peptides could grow at restrictive temperatures, millions of small peptides were rapidly screened for those that could restore mutant APC phenotypes. Peptides that rescued the apc5^CA ts (temperature sensitive) defect were recovered including peptides Y65 and Y36.
In the forward screens, with galactose-inducible TrxA-based peptide libraries, in cells harboring the apc5^CA ts allele, over 200 peptides (from millions screened) suppressed the ts phenotype. Several recovered plasmids were sequenced.

Cin5 = target: T3, Cin5 (Saccharomyces cerevisiae, UniProt P40917); assay: Yeast 2-hybrid with Y65 as bait to identify binding partners
T3 construct: expressed in transfected cells; host or cells: yeast Y2H cells
T3 sequence (P40917 1-295): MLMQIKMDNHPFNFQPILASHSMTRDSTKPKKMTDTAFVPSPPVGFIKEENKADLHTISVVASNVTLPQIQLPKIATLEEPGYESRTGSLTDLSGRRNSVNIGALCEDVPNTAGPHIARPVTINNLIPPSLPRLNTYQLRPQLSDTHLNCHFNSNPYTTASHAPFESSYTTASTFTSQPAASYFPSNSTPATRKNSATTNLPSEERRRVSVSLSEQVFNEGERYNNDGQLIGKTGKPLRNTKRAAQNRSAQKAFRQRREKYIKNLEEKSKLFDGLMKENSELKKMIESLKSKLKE
Description: One peptide in particular, Y65, was of interest because it had homology to Elongin C (Elc1; Y65 is 20 amino acids in length, with a 7 residue stretch sharing 86% identity and 100% similarity with Elc1). Elc1 is a ubiquitin-protein ligase (E3) conserved among eukaryotes that is involved in DNA repair (Harreman et al, 2009; Ribar et al, 2007). To identify what the peptides bound in order to modify APC activity, Y65 was cloned into the Y2H bait vector and used to identify binding partners.

Molecule	binds Apc5 in a yeast 2 hybrid assay (Apc5)	viability of an APC mutant [2]	levels of the APC substrate HURP [3]	binds Apc10 in a yeast 2 hybrid assay (Apc10)	other results
COc1cccc2c1C(=O)c1c(O)c3c(c(O)c1C2=O)C[C@@](O)(C(=O)CO)C[C@@H]3O[C@H]1C[C@H](N)[C@H](O)[C@H](C)O1 [Doxorubicin, reference compound]					metastatic potential / in vitro migration (MDA-MB-231 cells [1]): blocked
CECLETETFHPITRHLIVPV [C9-5]	Binds Apc5	increases the viability of an APC mutant	Only C1-8 did not reduce HURP levels		
FCL (FLC) [C1-8]			did not reduce		
GALKEVCICIVESVGGEVFS [C13-3]	Binds Apc5	increases the viability of an APC mutant			levels of the APC substrate CDC20 [3]: reduce levels; synergy with Doxorubicin (killing effect) (MDA-MB-231 cells [4]): synergize; metastatic potential / in vitro migration (MDA-MB-231 cells [1]): inhibit the in vitro migration
PSYNTIKYHETHGGRHPRRQRKRPI [C3-1]		increases the viability of an APC mutant		Binds Apc10	levels of the APC substrate CDC20 [3]: reduce levels
PVNGERWAP [C3-1B]			Only C1-8 did not reduce HURP levels	Binds Apc10	
RRCLSIRTENLAWEGKFLRV [C50-1]		increases the viability of an APC mutant		Binds Apc10	
SKWTWRMCMSWTVDRFAPVPWP [C24-1]	Binds Apc5	increases the viability of an APC mutant			
SWLNGSGGVVLWLFSNFCCG [Y36]					bind the APC in a yeast 2HY assay (APC): not bind the APC in a yeast; apc5^CA temperature sensitive (ts) growth / viability [5]: increases the viability; also recorded: rescued; also recorded: Rescues apc5^CA temperature
VRQKSDKEYERVLGLGLRRL [Y65]					bind the APC in a yeast 2HY assay (APC): not bind the APC in a yeast; Interacts with Cin5 in a yeast 2 hybrid assay (Cin5): One peptide binding partner was isolated, Cin5; apc5^CA temperature sensitive (ts) growth / viability [5]: increases the viability; also recorded: rescued; also recorded: Rescues apc5^CA temperature
